Measured values taken from publication PMC10394516, “The pharmacokinetic profile of brensocatib and its effect on pharmacodynamic biomarkers including NE, PR3, and CatG in various rodent species” (Frontiers in Pharmacology, 2023).

Legend:
[1] = Plasma PK of brensocatib, BID vs QD oral dosing, C57BL/6 mice; type: in vivo; conditions: both sexes; for AUC(0-t): first 24 h
Experimental: (§1) A dose frequency study was performed in male and female mice (C57BL/6 & BALB/c) and in male and female rats (Sprague Dawley & Wistar) investigating twice daily (BID) versus once daily (QD) brensocatib administration.
(§2) Briefly, animals were weighed and randomized into different treatment groups. In total, three different dosing levels of brensocatib were tested in each species and strain; each QD dosing level was equivalent to 1.5-times the matching daily BID dose. For BID dosing, the second daily dose was administered 8-h post the morning dose. C57BL/6 mice were dosed either BID or QD for 7 consecutive days at 0/0, 0.5/0.75, 2/3, and 20/30 mg/kg/day (BID/QD). BALB/c mice were dosed for 7 consecutive days at 0/0, 0.2/0.3, 2/3, and 20/30 mg/kg/day (BID/QD). SD rats were dosed for 9 consecutive days at 0/0, 0.2/0.3, 2/3, and 20/30 mg/kg/day (BID/QD). Wistar rats were dosed for 7 consecutive days at 0/0, 0.2/0.3, 2/3, and 20/30 mg/kg/day (BID/QD).
(§3) For sparse PK analysis via LC-MS/MS, plasma was collected from animals during the first 24 h of dosing at prescribed timepoints. The timepoints included 1, 3, 8, and 24 h post initial dose for QD groups, and 1, 3, 8, 9, 11, and 24 h post initial dose for BID groups. Note that the 8- and 24-h plasma samples were prior to the afternoon dose for BID groups and prior to the second day dose for all groups, respectively. See section Quantification of Plasma Brensocatib Concentrations for details.
(§4) Blood was collected via the tail-vein technique and centrifuged to separate and collect the plasma. The resulting plasma samples were stored at −20°C or lower until LC-MS/MS analysis.
(§5) The plasma concentration of brensocatib was quantified by liquid chromatography, tandem mass spectrometry (LC-MS/MS), a Sciex API6500 mass spectrometer (SCIEX, Framingham, MA). Two brensocatib stock solutions were prepared, one for the preparation of the 8-point standard (STD) curve spiking solutions and the other for the preparation of the quantitative control spiking solutions (QCs) at three levels. The STD curve and QCs were prepared by 2% spiking from the spiking solutions into mouse or rat plasma. The samples were extracted using a protein precipitation method, where 10 µL of sample was mixed with 100 µL of internal standard working solution (100 ng/mL ^6C13-brensocatib in methanol), vortexed for 5 s, and centrifuged at 21,130 × g at 4°C for 15 min. The supernatant was mixed with an equal volume of water and 10 μL was injected into a Phenomenex Kinetex Biphenyl column (3.0 mm × 50 mm; 2.6 μm; 65°C; 0.8 mL/min) with an elution gradient consisting of mobile phase A (10 mM ammonium formate) and mobile phase B (methanol) over 2 min from 5% to 95% B. The mass spectrometer was equipped with an atmospheric-pressure chemical ionization source operating in positive mode.
(§6) Individual plasma concentrations were plotted and the area under the curve (AUC) was calculated using the trapezoid method. The elimination rate constant (k e ) was calculated as the negative natural log of the plasma concentration over time (Eq. 1) starting at the max concentration (C max) after the most recent dose to the last measurable plasma concentration between doses. The calculated k e was used to define the half-life (t 1/2 ) based on Eq. 2; where 0.693 is the natural log of 2 and assumes a first-order reaction. ke=−ln∆C/∆t (1) t1/2=0.693/ke (2)

[2] = Plasma PK of brensocatib, BID vs QD oral dosing, Wistar rats; type: in vivo; conditions: both sexes, rat; for half-life: Wistar, po; for AUC(0-t): first 24 h
Experimental: as §1, §2, §3, §4, §5, §6

half-life ([1]; C57BL/6, BALB/c, mouse, oral, mice (both strains), across BID and QD regimens, sparse PK, read-out: half-life (overall) (converted)): ~150 min
half-life ([1]; C57BL/6, mouse, po, 0.5 mg/kg/day, C57BL/6 mice, oral BID, 0.5 mg/kg/day, evening dose, read-out: t1/2, PM dose (converted)): 37.8 ± 0.6 min
half-life ([1]; C57BL/6, mouse, po, 0.5 mg/kg/day, C57BL/6 mice, oral BID, 0.5 mg/kg/day, morning dose, read-out: t1/2, AM dose (converted)): 42.6 ± 13.8 min
half-life ([1]; C57BL/6, mouse, po, 0.75 mg/kg/day, C57BL/6 mice, oral QD, 0.75 mg/kg/day, read-out: t1/2, AM dose (converted)): 577 ± 57 min
half-life ([1]; C57BL/6, mouse, po, 2 mg/kg/day, C57BL/6 mice, oral BID, 2 mg/kg/day, evening dose, read-out: t1/2, PM dose (converted)): 141 ± 21 min
half-life ([1]; C57BL/6, mouse, po, 2 mg/kg/day, C57BL/6 mice, oral BID, 2 mg/kg/day, morning dose, read-out: t1/2, AM dose (converted)): 124 ± 25.2 min
half-life ([1]; C57BL/6, mouse, po, 3 mg/kg/day, C57BL/6 mice, oral QD, 3 mg/kg/day, read-out: t1/2, AM dose (converted)): 383 ± 33.6 min
half-life ([1]; C57BL/6, mouse, po, 20 mg/kg/day, C57BL/6 mice, oral BID, 20 mg/kg/day, evening dose, read-out: t1/2, PM dose (converted)): 142 ± 3 min
half-life ([1]; C57BL/6, mouse, po, 20 mg/kg/day, C57BL/6 mice, oral BID, 20 mg/kg/day, morning dose, read-out: t1/2, AM dose (converted)): 145 ± 25.2 min
half-life ([1]; C57BL/6, mouse, po, 30 mg/kg/day, C57BL/6 mice, oral QD, 30 mg/kg/day, read-out: t1/2, AM dose (converted)): 181 ± 10.8 min
AUC(0-t) ([1]; mouse, C57BL/6 mice, oral BID, 0.5 mg/kg/day, read-out: AUC0–24h): 294 ± 49 ng·h/mL
AUC(0-t) ([1]; mouse, C57BL/6 mice, oral BID, 0.5 mg/kg/day, read-out: AUC(0–24)): 0.7 ± 0.12 µM·h
AUC(0-t) ([1]; mouse, C57BL/6 mice, oral BID, 2 mg/kg/day, read-out: AUC0–24h): 2010 ± 154 ng·h/mL
AUC(0-t) ([1]; mouse, C57BL/6 mice, oral BID, 2 mg/kg/day, read-out: AUC(0–24)): 4.79 ± 0.37 µM·h
AUC(0-t) ([1]; mouse, C57BL/6 mice, oral BID, 20 mg/kg/day, read-out: AUC0–24h): 15900 ng·h/mL
AUC(0-t) ([1]; mouse, C57BL/6 mice, oral BID, 20 mg/kg/day, read-out: AUC(0–24)): 37.7 ± 8.33 µM·h
AUC(0-t) ([1]; mouse, C57BL/6 mice, oral QD, 0.75 mg/kg/day, read-out: AUC0–24h): 735 ± 108 ng·h/mL
AUC(0-t) ([1]; mouse, C57BL/6 mice, oral QD, 0.75 mg/kg/day, read-out: AUC(0–24)): 1.75 ± 0.26 µM·h
AUC(0-t) ([1]; mouse, C57BL/6 mice, oral QD, 3 mg/kg/day, read-out: AUC0–24h): 2840 ± 302 ng·h/mL
AUC(0-t) ([1]; mouse, C57BL/6 mice, oral QD, 3 mg/kg/day, read-out: AUC(0–24)): 6.76 ± 0.72 µM·h
AUC(0-t) ([1]; mouse, C57BL/6 mice, oral QD, 30 mg/kg/day, read-out: AUC0–24h): 52600 ng·h/mL
AUC(0-t) ([1]; mouse, C57BL/6 mice, oral QD, 30 mg/kg/day, read-out: AUC(0–24)): 125 ± 16 µM·h
half-life ([2]; 0.2 mg/kg/day, oral BID, 0.2 mg/kg/day, evening dose, read-out: t1/2, PM dose (converted)): 387 ± 33 min
half-life ([2]; 0.2 mg/kg/day, oral BID, 0.2 mg/kg/day, morning dose, read-out: t1/2, AM dose (converted)): 329 ± 106 min
half-life ([2]; 0.3 mg/kg/day, oral QD, 0.3 mg/kg/day, read-out: t1/2, AM dose (converted)): 2060 ± 1220 min
half-life ([2]; 2 mg/kg/day, oral BID, 2 mg/kg/day, evening dose, read-out: t1/2, PM dose (converted)): 299 ± 19.8 min
half-life ([2]; 2 mg/kg/day, oral BID, 2 mg/kg/day, morning dose, read-out: t1/2, AM dose (converted)): 610 ± 88.2 min
half-life ([2]; 3 mg/kg/day, oral QD, 3 mg/kg/day, read-out: t1/2, AM dose (converted)): 308 ± 30 min
half-life ([2]; 20 mg/kg/day, oral BID, 20 mg/kg/day, evening dose, read-out: t1/2, PM dose (converted)): 260 ± 9.6 min
half-life ([2]; 20 mg/kg/day, oral BID, 20 mg/kg/day, morning dose, read-out: t1/2, AM dose (converted)): 469 ± 82.8 min
half-life ([2]; 30 mg/kg/day, oral QD, 30 mg/kg/day, read-out: t1/2, AM dose (converted)): 265 ± 10.8 min
AUC(0-t) ([2]; oral BID, 0.2 mg/kg/day, read-out: AUC0–24h): 377 ± 78 ng·h/mL
AUC(0-t) ([2]; oral BID, 0.2 mg/kg/day, read-out: AUC(0–24)): 0.9 ± 0.18 µM·h
AUC(0-t) ([2]; oral BID, 2 mg/kg/day, read-out: AUC0–24h): 9820 ± 1820 ng·h/mL
AUC(0-t) ([2]; oral BID, 2 mg/kg/day, read-out: AUC(0–24)): 23.4 ± 4.32 µM·h
AUC(0-t) ([2]; oral BID, 20 mg/kg/day, read-out: AUC0–24h): 173000 ng·h/mL
AUC(0-t) ([2]; oral BID, 20 mg/kg/day, read-out: AUC(0–24)): 412 ± 89.6 µM·h
AUC(0-t) ([2]; oral QD, 0.3 mg/kg/day, read-out: AUC0–24h): 1040 ± 291 ng·h/mL
AUC(0-t) ([2]; oral QD, 0.3 mg/kg/day, read-out: AUC(0–24)): 2.46 ± 0.69 µM·h
AUC(0-t) ([2]; oral QD, 3 mg/kg/day, read-out: AUC0–24h): 11700 ng·h/mL
AUC(0-t) ([2]; oral QD, 3 mg/kg/day, read-out: AUC(0–24)): 27.9 ± 5.53 µM·h
AUC(0-t) ([2]; oral QD, 30 mg/kg/day, read-out: AUC0–24h): 266000 ng·h/mL
AUC(0-t) ([2]; oral QD, 30 mg/kg/day, read-out: AUC(0–24)): 634 ± 52.4 µM·h
SMILES: Cn1c(=O)oc2ccc(-c3ccc(C[C@@H](C#N)NC(=O)[C@@H]4CNCCCO4)cc3)cc21 [brensocatib]
